Here are results for 45 compounds from patent US7498441B2, “Biaryltetrahydroisoquinoline piperidines as selective MCH receptor antagonists for the treatment of obesity and related disorders” (Schering Corporation, priority 2003, dated 2009).

The target of one test is T1, MCH receptor (Homo sapiens, UniProt Q99705).
T1 construct: expressed in transfected cells; host or cells: CHO cells
T1 sequence (Q99705 whole entry): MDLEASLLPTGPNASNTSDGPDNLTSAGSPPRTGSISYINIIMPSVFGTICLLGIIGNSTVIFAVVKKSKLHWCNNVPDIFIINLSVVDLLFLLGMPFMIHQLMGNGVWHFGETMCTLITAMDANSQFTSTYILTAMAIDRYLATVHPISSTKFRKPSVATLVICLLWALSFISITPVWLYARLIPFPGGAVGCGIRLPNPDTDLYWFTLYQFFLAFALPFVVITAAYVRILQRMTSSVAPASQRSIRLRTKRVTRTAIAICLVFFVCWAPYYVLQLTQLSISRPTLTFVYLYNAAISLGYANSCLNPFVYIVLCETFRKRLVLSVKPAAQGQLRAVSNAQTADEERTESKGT
Description: MCH Receptor Binding Assay ([125I]-MCH, SPA, membranes from CHO cells expressing the MCH receptor). The settings on record: MCH Receptor Activity (Preferred Compounds); dissociation constants; read-out: Ave KiMCH. The method, then: Membranes from CHO cells expressing the MCH receptor were prepared by lysing cells with 5 mM HEPES for 15 min at 4 C. Cell lysates were centrifuged ([…], 15 min) and the pellet was resuspended in 5 mM HEPES. For each 96-well plate (Microlite, Dynex Technologies), 1 mg of cell membranes were incubated with 10 mg of wheat germ agglutinin SPA beads (Amersham) for 5 min at 4 C in a volume of 10 ml of binding buffer (25 mM HEPES, 10 mM MGCl2, 10 mM NaCl, 5 mM MnCl2, 0.1% BSA). The membrane/bead mixture was centrifuged (1500×g, 3.5 min), the supernatant was aspirated, and the pellet was resuspended in 10 ml binding buffer. The centrifugation, aspiration and resuspension were then repeated. The membrane/bead mixture (100 μl) was then added to 96-well plates containing 50 μl of 500 pM [^125I]-MCH (NEN) and […] of the appropriate concentration of compound (4× the desired final concentration). Nonspecific binding was determined by including 1 μM MCH in the binding reaction. The binding reaction was incubated at room temperature for 2 h. Plates were then analyzed in a TOPCOUNT microplate scintillation counter (Packard). Data was analyzed and Ki values for the compounds of Formula 1 were determined using GraphPad Prim.
With `N#Cc1cccc(-c2ccc3c(c2)CCN(CC(=O)Nc2cc(Cl)cc(Cl)c2)C3C2CCN(C3CCCC3)CC2)c1` (stereo not shown) [Example 1], the Ki amounted to 11.2 nM. In the case of `O=C(CN1CCc2cc(-c3ccncc3)ccc2C1C1CCN(C2CCCC2)CC1)Nc1cc(Cl)cc(Cl)c1` (stereo not shown) [Example 12], the Ki is 24 nM. With `O=C(CN1CCc2cc(-c3cccnc3)ccc2C1C1CCN(C2CCCC2)CC1)Nc1cc(Cl)cc(Cl)c1` (stereo not shown) [Example 16], the Ki came out at 23 nM. As to `CN1CCC(C2c3ccc(-c4cccc(C#N)c4)cc3CCN2CC(=O)Nc2cc(Cl)cc(Cl)c2)CC1` (stereo not shown) [Example 17], the Ki worked out at 22 nM. In the case of `N#Cc1cccc(-c2ccc3c(c2)CCN(CC(=O)Nc2cc(Cl)cc(Cl)c2)C3C2CCN(Cc3ccccc3)CC2)c1` (stereo not shown) [Example 19], the Ki amounted to 23 nM.

Regarding `N#Cc1cccc(-c2ccc3c(c2)CCN(CC(=O)Nc2cc(Cl)cc(Cl)c2)C3C2CCNCC2)c1` (stereo not shown) [Example 20], the Ki amounted to 26 nM. `N#Cc1cccc(-c2ccc3c(c2)CCN(CC(=O)Nc2cc(Cl)cc(Cl)c2)C3C2CCN(CCCCCO)CC2)c1` (stereo not shown) [Example 21]: the Ki stood at 6.8 nM. Consider `N#Cc1cccc(-c2ccc3c(c2)CCN(CC(=O)Nc2cc(Cl)cc(Cl)c2)C3C2CCN(C3CCCCCC3)CC2)c1` (stereo not shown) [Example 22], for which the Ki came out at 10 nM. For `N#Cc1cccc(-c2ccc3c(c2)CCN(CC(=O)Nc2cc(Cl)cc(Cl)c2)C3C2CCN(C3CCOCC3)CC2)c1` (stereo not shown) [Example 24], the Ki is 6.4 nM. Still for that read-out and setting: then `N#Cc1cccc(-c2ccc3c(c2)CCN(CC(=O)Nc2cc(Cl)cc(Cl)c2)C3C2CCN(C3CCSC3)CC2)c1` (stereo not shown) [Example 25], with 7 nM.

Take `N#Cc1cccc(-c2ccc3c(c2)CCN(CC(=O)Nc2cc(Cl)cc(Cl)c2)C3C2CCN(Cc3ccoc3)CC2)c1` (stereo not shown) [Example 26]: the Ki came to 14 nM. Consider `COc1ccccc1CN1CCC(C2c3ccc(-c4cccc(C#N)c4)cc3CCN2CC(=O)Nc2cc(Cl)cc(Cl)c2)CC1` (stereo not shown) [Example 27], for which the Ki stood at 16 nM.

Take `N#Cc1cccc(-c2ccc3c(c2)CCN(CC(=O)Nc2cc(Cl)cc(Cl)c2)C3C2CCN(CC3CC3)CC2)c1` (stereo not shown) [Example 28]: the Ki worked out at 9.3 nM.

Regarding `N#Cc1cccc(-c2ccc3c(c2)CCN(CC(=O)Nc2cc(Cl)cc(Cl)c2)C3C2CCN(C3CCC3)CC2)c1` (stereo not shown) [Example 29], the Ki was 15 nM.

On to `N#Cc1cccc(-c2ccc3c(c2)CCN(CC(=O)Nc2cc(Cl)cc(Cl)c2)C3C2CCN(C3CCCCC3)CC2)c1` (stereo not shown) [Example 32], for which the Ki was 10 nM.

The same test, now with this note: MCH Receptor Antagonist Activity; rated A/B/C; read-out: Av. MCH Ki.
In the case of `O=C(CN1CCc2cc(-c3cccc(C(F)(F)F)c3)ccc2C1C1CCN(C2CCCC2)CC1)Nc1cc(Cl)cc(Cl)c1` (stereo not shown) [Example 1], the Ki was 100 to 500 nM. `O=C(CN1CCc2cc(-c3ccccc3)ccc2C1C1CCN(C2CCCC2)CC1)Nc1cc(Cl)cc(Cl)c1` (stereo not shown) [Example 2]: the Ki is 100 to 500 nM. In the case of `N#Cc1ccc(-c2ccc3c(c2)CCN(CC(=O)Nc2cc(Cl)cc(Cl)c2)C3C2CCN(C3CCCC3)CC2)cc1` (stereo not shown) [Example 3], the Ki lay within 100 to 500 nM. On to `O=C(CN1CCc2cc(-c3cccc(F)c3)ccc2C1C1CCN(C2CCCC2)CC1)Nc1cc(Cl)cc(Cl)c1` (stereo not shown) [Example 4], for which the Ki fell in the range of 1 to 100 nM. `O=C(CN1CCc2cc(-c3cccc(Cl)c3)ccc2C1C1CCN(C2CCCC2)CC1)Nc1cc(Cl)cc(Cl)c1` (stereo not shown) [Example 5]: the Ki is 1 to 100 nM.

Turning to `COc1cccc(-c2ccc3c(c2)CCN(CC(=O)Nc2cc(Cl)cc(Cl)c2)C3C2CCN(C3CCCC3)CC2)c1` (stereo not shown) [Example 6], the Ki lay within 1 to 100 nM.

On to `O=C(CN1CCc2cc(-c3cccc(OC(F)(F)F)c3)ccc2C1C1CCN(C2CCCC2)CC1)Nc1cc(Cl)cc(Cl)c1` (stereo not shown) [Example 8], for which the Ki lay in the range of 1 to 100 nM.

For `O=Cc1cccc(-c2ccc3c(c2)CCN(CC(=O)Nc2cc(Cl)cc(Cl)c2)C3C2CCN(C3CCCC3)CC2)c1` (stereo not shown) [Example 9], the Ki lay in the range of 1 to 100 nM. `O=C(CN1CCc2cc(-c3cc(Cl)ccc3Cl)ccc2C1C1CCN(C2CCCC2)CC1)Nc1cc(Cl)cc(Cl)c1` (stereo not shown) [Example 10]: the Ki was 1 to 100 nM. Regarding `O=C(CN1CCc2cc(-c3ccsc3)ccc2C1C1CCN(C2CCCC2)CC1)Nc1cc(Cl)cc(Cl)c1` (stereo not shown) [Example 13], the Ki was 100 to 500 nM.

Regarding `O=C(CN1CCc2cc(-c3cccc(-c4ncc[nH]4)c3)ccc2C1C1CCN(C2CCCC2)CC1)Nc1cc(Cl)cc(Cl)c1` (stereo not shown) [Example 14], the Ki fell in the range of 1 to 100 nM. For `O=C(CN1CCc2cc(-c3ccc[nH]3)ccc2C1C1CCN(C2CCCC2)CC1)Nc1cc(Cl)cc(Cl)c1` (stereo not shown) [Example 15], the Ki fell in the range of 100 to 500 nM. `O=C(CN1CCc2cc(-c3cccc(C(=O)O)c3)ccc2C1C1CCN(C2CCCC2)CC1)Nc1cc(Cl)cc(Cl)c1` (stereo not shown) [Example 18]: the Ki was over 500 nM. For `N#Cc1cccc(-c2ccc3c(c2)CCN(CC(=O)Nc2cc(Cl)cc(Cl)c2)C3C2CCN(Cc3ccccc3)CC2)c1` (stereo not shown) [Example 19], the Ki was in the range of 1 to 100 nM.

In the case of `O=C(CN1CCc2cc(-c3cccc4cccnc34)ccc2C1C1CCN(C2CCCC2)CC1)Nc1cc(Cl)cc(Cl)c1` (stereo not shown) [Example 20], the Ki was over 500 nM. `CN1CCC(N2CCC(C3c4ccc(-c5cccc(C#N)c5)cc4CCN3CC(=O)Nc3cc(Cl)cc(Cl)c3)CC2)CC1` (stereo not shown) [Example 23]: the Ki fell in the range of 1 to 100 nM. With `N#Cc1cccc(-c2ccc3c(c2)CCN(CC(=O)Nc2cc(Cl)cc(Cl)c2)C3C2CCN(CCCc3ccccc3)CC2)c1` (stereo not shown) [Example 30], the Ki lay in the range of 1 to 100 nM.

As for `CC(C)N1CCC(C2c3ccc(-c4cccc(C#N)c4)cc3CCN2CC(=O)Nc2cc(Cl)cc(Cl)c2)CC1` (stereo not shown) [Example 31], the Ki is 1 to 100 nM. `N#Cc1cccc(-c2ccc3c(c2)CCN(CC(=O)Nc2cc(Cl)cc(Cl)c2)C3C2CCN(C(=O)C3CCCC3)CC2)c1` (stereo not shown) [Example 33]: the Ki is over 500 nM. On the same count and under the same terms, then `CCN(CC)C(=O)N1CCC(C2c3ccc(-c4cccc(C#N)c4)cc3CCN2CC(=O)Nc2cc(Cl)cc(Cl)c2)CC1` (stereo not shown) [Example 34], with 100 to 500 nM; and `CC(=O)N1CCC(C2c3ccc(-c4cccc(C#N)c4)cc3CCN2CC(=O)Nc2cc(Cl)cc(Cl)c2)CC1` (stereo not shown) [Example 35], with over 500 nM; and `CS(=O)(=O)N1CCC(C2c3ccc(-c4cccc(C#N)c4)cc3CCN2CC(=O)Nc2cc(Cl)cc(Cl)c2)CC1` (stereo not shown) [Example 36], with over 500 nM. Take `CN(C)S(=O)(=O)N1CCC(C2c3ccc(-c4cccc(C#N)c4)cc3CCN2CC(=O)Nc2cc(Cl)cc(Cl)c2)CC1` (stereo not shown) [Example 37]: the Ki was in the range of 100 to 500 nM. For the compound `N#Cc1cccc(-c2ccc3c(c2)CCN(CC(=O)Nc2cc(Cl)cc(Cl)c2)C3C2CCN(Cc3nccs3)CC2)c1` (stereo not shown) [Example 38], the Ki lay in the range of 100 to 500 nM.

As for `CCS(=O)(=O)N1CCC(C2c3ccc(-c4cccc(C#N)c4)cc3CCN2CC(=O)Nc2cc(Cl)cc(Cl)c2)CC1` (stereo not shown) [Example 39], the Ki was over 500 nM. As for `N#Cc1cccc(-c2ccc3c(c2)CCN(C(=O)Nc2cc(Cl)cc(Cl)c2)C3C2CCN(Cc3ccccc3)CC2)c1` (stereo not shown) [Example 40], the Ki is over 500 nM.

For `N#Cc1cccc(-c2ccc3c(c2)CCN(C(=O)Nc2ccc(Cl)c(Cl)c2)C3C2CCN(Cc3ccccc3)CC2)c1` (stereo not shown) [Example 41], the Ki was over 500 nM. Take `N#Cc1cccc(-c2ccc3c(c2)CCN(Cc2nc4ccccc4[nH]2)C3C2CCN(Cc3ccccc3)CC2)c1` (stereo not shown) [Example 42]: the Ki was in the range of 100 to 500 nM. As for `N#Cc1cccc(-c2ccc3c(c2)CCN(Cc2nc4cc(Cl)c(Cl)cc4[nH]2)C3C2CCN(Cc3ccccc3)CC2)c1` (stereo not shown) [Example 43], the Ki was 1 to 100 nM. As for `CN1CCC(C2c3ccc(-c4cccc(C#N)c4)cc3CCN2Cc2nc3cc(Cl)c(Cl)cc3[nH]2)CC1` (stereo not shown) [Example 44], the Ki fell in the range of 100 to 500 nM. In the case of `N#Cc1cccc(-c2ccc3c(c2)CCN(Cc2nc4cc(F)c(Cl)cc4[nH]2)C3C2CCN(Cc3ccccc3)CC2)c1` (stereo not shown) [Example 45], the Ki lay within 1 to 100 nM.
